Results reported in patent US12129252B1, “Pyrrolo[2,3-c][2,6]naphthyridine-8-carboxylic acids as CK2 inhibitors” (KING FAISAL UNIVERSITY, priority 2024, dated 2024).

What was measured:
MCF7 (breast) = assay: In vitro cytotoxic activity assay (MTT), MCF7; type: cell-based; conditions: Homo sapiens, cells exposed for 96 hours, 50 % inhibition of cell proliferation, read-out: Cytotoxicity activity IC50, MCF7 (breast)
Experimental: (§1) Compounds 1-15 were screened for their in vitro cytotoxic activity utilizing a 3-(4,5-dimethyl-thiazol-2-yl)-2,5-diphenyltetrazolium bromide (MTT) assay against selected cancer human cell lines consisting of PC3 (prostate), HCT116 (colon), A375 (melanoma), H1299 (lung), MIAPaCa-2 (pancreas), HL60 (leukemia), MCF7 (breast), MDA-MB-231 (breast) (T. Mosmann, J. Immunol. Meth., 1983, 65, 55-63). The cells were cultured at 37° C. in RMPI1640 medium supplemented with 10% fetal bovine serum, 50 IU/mL penicillin, and 50 μg/mL streptomycin in a 5% CO2 incubator. All cells were sub-cultured 3 times/week by trypsinisation. Viable cells were seeded and allowed to adhere for 12 hours before a test drug was added in 96-well plates at an initial density of 1.0×10^5 cells/mL. Tumor cell lines were separately exposed to various concentrations of the tested compounds followed by incubation at a temperature of 37° C. during 96 hours inside a medium of fresh RMPI 1640. Cells were subsequently incubated at 37° C. using MTT at 0.5 mg/mL during 4 hours. After removal of supernatant, formazan crystals were dissolved in isopropanol and the optical density was measured at 570 nm. CX-4945 was used as a positive control.

HL60 (leukemia) = assay: In vitro cytotoxic activity assay (MTT), HL60; type: cell-based; conditions: Homo sapiens, HL-60; cells exposed for 96 hours; 50 % inhibition of cell proliferation; read-out: Cytotoxicity activity IC50, HL60 (leukemia)
Experimental: as §1

PC3 (prostate) = assay: In vitro cytotoxic activity assay (MTT), PC3; type: cell-based; conditions: Homo sapiens; cells exposed for 96 hours; 50 % inhibition of cell proliferation; read-out: Cytotoxicity activity IC50, PC3 (prostate)
Experimental: as §1

A375 (melanoma) = assay: In vitro cytotoxic activity assay (MTT), A375; type: cell-based; conditions: Homo sapiens, A-375; cells exposed for 96 hours; 50 % inhibition of cell proliferation; read-out: Cytotoxicity activity IC50, A375 (melanoma)
Experimental: as §1

MIAPaCa-2 (pancreas) = assay: In vitro cytotoxic activity assay (MTT), MIAPaCa-2; type: cell-based; conditions: Homo sapiens, MIA PaCa-2; cells exposed for 96 hours; 50 % inhibition of cell proliferation; read-out: Cytotoxicity activity IC50, MIAPaCa-2 (pancreas)
Experimental: as §1

MDA-MB-231 (breast) = assay: In vitro cytotoxic activity assay (MTT), MDA-MB-231; type: cell-based; conditions: Homo sapiens, cells exposed for 96 hours, 50 % inhibition of cell proliferation, read-out: Cytotoxicity activity IC50, MDA-MB-231 (breast)
Experimental: as §1

HCT116 (colon) = assay: In vitro cytotoxic activity assay (MTT), HCT116; type: cell-based; conditions: Homo sapiens, HCT-116; cells exposed for 96 hours; 50 % inhibition of cell proliferation; read-out: Cytotoxicity activity IC50, HCT116 (colon)
Experimental: as §1

H1299 (lung) = assay: In vitro cytotoxic activity assay (MTT), H1299; type: cell-based; conditions: Homo sapiens, NCI-H1299; cells exposed for 96 hours; 50 % inhibition of cell proliferation; read-out: Cytotoxicity activity IC50, H1299 (lung)
Experimental: as §1

[1] = target: T1, recombinant human CK2 (RRββ-holoenzyme) (Homo sapiens, UniProt P68400); assay: CK2 Kinase Assay; type: biochemical; conditions: final ATP concentration 15 μM; 10 min at 30° C.; read-out: protein kinase CK2 inhibition IC50
T1 construct: purchased Millipore
T1 sequence (P68400 whole entry): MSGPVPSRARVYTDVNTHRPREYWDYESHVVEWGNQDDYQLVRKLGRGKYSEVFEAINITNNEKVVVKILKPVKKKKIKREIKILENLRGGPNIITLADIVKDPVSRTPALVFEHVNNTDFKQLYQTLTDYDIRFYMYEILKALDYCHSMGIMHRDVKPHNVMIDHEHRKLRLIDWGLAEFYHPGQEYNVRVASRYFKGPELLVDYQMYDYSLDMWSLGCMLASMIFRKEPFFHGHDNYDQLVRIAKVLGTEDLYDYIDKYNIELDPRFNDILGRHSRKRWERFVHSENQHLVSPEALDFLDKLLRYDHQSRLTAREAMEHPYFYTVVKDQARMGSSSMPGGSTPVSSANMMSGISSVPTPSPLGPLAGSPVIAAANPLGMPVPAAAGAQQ
T1 sequence (P67870 whole entry partner): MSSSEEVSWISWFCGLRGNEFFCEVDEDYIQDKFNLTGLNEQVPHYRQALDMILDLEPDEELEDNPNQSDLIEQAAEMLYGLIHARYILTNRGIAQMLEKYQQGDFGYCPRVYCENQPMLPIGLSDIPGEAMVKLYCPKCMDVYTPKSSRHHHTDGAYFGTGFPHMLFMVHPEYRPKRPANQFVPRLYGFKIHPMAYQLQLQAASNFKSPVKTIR
Experimental: CK2 Kinase Assay was conducted using the protocol as described in Pierre F. et al; J. Med. Chem. 2011, 54, 635-654. The tested compounds in aqueous solution were added at a volume of 10 μL to a reaction mixture comprising 10 μL of assay dilution buffer (ADB; 20 mM MOPS, pH 7.2, 25 mM β-glycerol phosphate, 5 mM EGTA, 1 mM sodium orthovanadate, and 1 mM dithiothreitol), 10 μL of substrate peptide (RRRDDDSDDD, dissolved in ADB at a concentration of 1 mM), 10 μL of recombinant human CK2 (RRββ-holoenzyme, 25 ng dissolved in ADB; Millipore). Reactions were initiated by the addition of 10 μL of ATP solution (90% 75 mMMgCl2, 75 μM ATP (final ATP concentration: 15 μM) dissolved in ADB; 10% [γ-33P] ATP (stock 1 mCi/100 μL; 3000 Ci/mmol (Perkin-Elmer) and maintained for 10 min at 30° C. The reactions were quenched with 100 μL of 0.75% phosphoric acid and then transferred to and filtered through a phosphor cellulose filter plate (Millipore). After washing each well five times with 0.75% phosphoric acid, the plate was dried under vacuum for 5 min and, following the addition of 15 μL of scintillation fluid to each well, the residual radioactivity was measured using a Wallac […] counter. The IC50 values were derived from eight concentrations of test inhibitors.

IC50 [1]: 8 nM
SMILES: O=C(O)c1cc2c(nc(Nc3cccc(Cl)c3)c3ccncc32)[nH]1 [Compound 1, 5-((3-chlorophenyl)amino)-7H-pyrrolo[2,3-c][2,6]naphthyridine-8-carboxylic Acid]
IC50 (MCF7 (breast)): 3500 nM | IC50 (HL60 (leukemia)): 2200 nM | IC50 (PC3 (prostate)): 2100 nM | IC50 (A375 (melanoma)): 2900 nM | IC50 (MIAPaCa-2 (pancreas)): 900 nM | IC50 (MDA-MB-231 (breast)): 3800 nM | IC50 (HCT116 (colon)): 1000 nM | IC50 (H1299 (lung)): 1300 nM
